Measurements published in patent US20250313555A1, “2-SUBSTITUTED THIAZOLE AND BENZOTHIAZOLE COMPOSITIONS AND METHODS AS DUX4 INHIBITORS” (ALTAY THERAPEUTICS, INC., priority 2022, published 2025).

Key:
Type in all cases: cell-based
DUX4 = target: T1, DUX4 (Homo sapiens, UniProt Q9UBX2); assay: DUX4 EC50 luciferase reporter protocol in transfected HEK293 cells; settings: 6 hr
T1 construct: expressed in transfected cells; host or cells: HEK293
Text: EC50 Protocol This example provides a representative protocol for a single well of a 96-well plate. It can be scaled up as necessary for treatment of multiple wells. For negative controls, a well containing reporter DNA, Renilla DNA, and turbofect (without expression vector) were used. For positive controls, wells containing cells that were not treated with any inhibitor were used. They were transfected with the complete DNA lipid complex as set forth below. The DNA-lipid complex for one well of the 96-well plate is prepared by adding to a tube 100 ng of the transfection factor (TF) expression vector, 100 ng of TF reporter DNA, 10 ng of Renilla reporter DNA, […] Turbofect transfection reagent, and […] of the medium without any serum or penicillin/streptomycin. The combination was mixed by gentle flicking of the tube, and the mixture was pipetted into a well of a 96-well plate. The plate was then gently tapped to spread the combination evenly on the bottom of the well. The well was incubated for 30 min. HEK293 cells were grown until 80% confluent in DMEM supplemented with 10% fetal bovine serum, 1% penicillin streptomycin, and 1% amphotericin B. The adherent cells growing on a 10 cm plate were trypsinized with 1 mL of prewarmed trypsin. Once the cells detached from the plate, 10 mL of medium was added, and the cells were strained through a […] cell strainer. The cells were counted using a mixture of 10 mL cell suspension with 10 mL of trypan blue. Once the total number of cells are counted, a dilution of 150 k/mL was prepared. After incubation of the transfection complex was complete, […] of HEK293s (23.25 k total cells) were gently dispensed on top of the wells containing the 25 mL transfection complex, producing a total volume of about 180 mL. The mixture was then incubated for 24 h. To treat cells with each inhibitor, the inhibitors were prepared in the same growth medium. In a deep well block, the regular medium with serum was added to well 1 (135 mL) and to wells 2 through 10 (100 mL). To the first well was added 15 mL of 10 nM inhibitor. The final concentration of the drug in well 1 was 1 nM. The wells were pipeted up and down, and 50 mL was transferred from well 1 to well 2 (1/3 dilution). The well was mixed, and the seriation dilution was repeated with the remaining wells. Once the serial dilution was complete, using a multichannel pipet, 20 mL of each inhibitor were transferred to designated wells in a 96-well plate. […] Before the assay, a sufficient amount of 1× passive lysis buffer was prepared. The luciferase substrate buffer (Promega) was thawed completely and then mixed with the lyophilized luciferase substrate. The stop buffer (Promega) was also completely thawed. (1) Cell lysis: After treatment of the cells was complete, all the cell media is removed by flipping the 96-well plate over and tapping it dry on a dry paper towel. Immediately afterwards, the 1× passive lysis buffer (25 μL) was added. The plates were then placed on a rocker for 15 minutes at medium speed. (2)Measuring luciferase signal: The luciferase substrate solution for all wells was placed in a solution basin. The luciferase substrate solution was then added to every well (100 μL/well) using a multichannel pipette. The total luminescence was then read immediately using a plate reader. (3)Measuring Renilla signal: The “complete stop solution” was prepared in a solution basin by mixing the buffer with the 50× stop solution substrate (Promega) to make the final 1× solution. The complete stop solution was added to each well (50 μL/well) using a multichannel pipette. The total luminescence was then read immediately using a plate reader. Using a spreadsheet (e.g., Excel), the luciferase signal was divided by the renilla signal to get a relative luciferase unit.

[1] = Cell cytotoxicity 50 assay (CC50), MB200 cells, cell titer glo; settings: human
How it was run: (§1)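 Luminescence from CellTiter-Glo after 72 h of compound exposure at 37 °C gave the CC50 for MB200 cells. These were plated at 10 k cells/well in triplicate in supplemented F10 medium and treated with a serial dilution series prepared from a 10 mM stock.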

[2] = Cell cytotoxicity 50 assay (CC50), HEK cells; settings: human
How it was run: (§2)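 CC50 was fitted from total luminescence, measured 5 min after adding CellTiter-Glo reagent to HEK cells. The cells had been exposed for 72 h at 37 °C to medium serial dilutions prepared from a 10 mM drug solution.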

MB200 cells = assay: Cell cytotoxicity 50 assay (CC50), MB200 cells, cell titer glo; settings: 72 h
How it was run: as §1

MBD3L2 RNA = assay: RNA isolation and qPCR to determine MBD3L2 RNA levels in FSHD cells; settings: 48 hrs
How it was run: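 FSHD cells were treated one day after seeding with a DUX4 inhibitor (11 μM or 3.6 μM) for 48 h. Total RNA was DNase-treated and reverse-transcribed with random hexamers and M-MLV. MBD3L2 was quantified by SYBR Green qPCR in triplicate against EEF1A as the reference gene.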

HEK = assay: Cell cytotoxicity 50 assay (CC50), HEK cells
How it was run: as §2

T1 sequence (Q9UBX2 whole entry): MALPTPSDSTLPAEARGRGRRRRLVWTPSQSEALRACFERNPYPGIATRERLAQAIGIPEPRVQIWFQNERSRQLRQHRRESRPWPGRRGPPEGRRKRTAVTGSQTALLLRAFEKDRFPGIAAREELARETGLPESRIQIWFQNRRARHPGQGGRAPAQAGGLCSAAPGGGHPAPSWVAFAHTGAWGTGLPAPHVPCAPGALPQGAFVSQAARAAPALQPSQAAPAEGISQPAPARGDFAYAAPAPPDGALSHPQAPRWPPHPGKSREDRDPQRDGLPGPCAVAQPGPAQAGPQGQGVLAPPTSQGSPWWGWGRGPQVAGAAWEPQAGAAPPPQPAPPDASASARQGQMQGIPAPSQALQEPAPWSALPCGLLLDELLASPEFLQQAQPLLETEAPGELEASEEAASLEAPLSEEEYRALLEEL

Row | EC50 (DUX4) | SMILES | CC50 at 72 h [1] | CC50 at 72 h [2] | CC50 (MB200 cells) | qPCR MBD3L2 Inhib at 11 µM (MBD3L2 RNA) | CC50 (HEK)
1 | > 10 µM | O=C(CCC(=O)c1cccs1)Nc1ccc(-c2nc3ccccc3s2)cc1 [Compound 25] | > 10 µM | > 10 µM | – | – | –
2 | – | O=C(CCC1CCC(=O)N1)Nc1ccc(-c2nc3ccccc3s2)cc1 (stereo not shown) [Compound 26] | – | – | 1 to 10 µM | YES | > 10 µM
3 | > 10 µM | O=C(CCN1C(=O)CCC1=O)Nc1ccc(-c2ccc3ncsc3c2)cc1 [Compound 43] | > 10 µM | > 10 µM | – | – | –
4 | > 10 µM | O=C(CCN1C(=O)CCC1=O)Nc1ccc(C(=O)c2nc3ccccc3s2)cc1 [Compound 69] | 1 to 10 µM | > 10 µM | – | – | –
5 | > 10 µM | CC(=O)NCCCC(=O)Nc1coc(-c2nccs2)c1 [Compound 79] | > 10 µM | > 10 µM | – | – | –
6 | > 10 µM | CC(=O)NCCCC(=O)Nc1ccc(Cc2nc3ccccc3s2)cc1 [Compound 80] | > 10 µM | > 10 µM | – | – | –
7 | > 10 µM | O=C1CCC(=O)N1[C@H]1C[C@@H](C(=O)Nc2ccc(-c3nc4ccccc4s3)cc2)C1 [Compound 95] | > 10 µM | > 10 µM | – | – | –
8 | > 10 µM | O=C(CCCN1C(=O)CCC1=O)N[C@H]1C[C@H](c2nc3ccccc3s2)C1 [Compound 98] | > 10 µM | > 10 µM | – | – | –
9 | > 10 µM | CC(=O)NCCCC(=O)Nc1ncc(-c2nc3ccccc3s2)o1 [Compound 121] | > 10 µM | > 10 µM | – | – | –
10 | > 10 µM | O=C(CCCN1CCCC1=O)NC1COCC1c1nc2ccccc2s1 (stereo not shown) [Compound 122] | > 10 µM | > 10 µM | – | – | –
11 | > 10 µM | O=C(CCCN1CCCC1=O)NC1CCCCC1c1nc2ccccc2s1 (stereo not shown) [Compound 123] | > 10 µM | > 10 µM | – | – | –
12 | > 10 µM | O=C(CCCN1C(=O)CCC1=O)N[C@@H]1CC[C@H](c2nc3ccccc3s2)C1 [Compound 127] | > 10 µM | > 10 µM | – | – | –
13 | > 10 µM | O=C(CCCN1C(=O)CCC1=O)N[C@H]1CC[C@H](c2nc3ccccc3s2)C1 [Compound 128] | > 10 µM | > 10 µM | – | – | –
14 | > 10 µM | CC(=O)NC1CCC(C(=O)N[C@H]2CC[C@@H](c3nc4ccccc4s3)CC2)C1 (stereo partly shown) [Compound 133] | > 10 µM | > 10 µM | – | – | –
15 | > 10 µM | CC(=O)NC1CCC(C(=O)NC2CCC(c3nc4ccccc4s3)C2)C1 (stereo not shown) [Compound 135] | > 10 µM | > 10 µM | – | – | –
16 | > 10 µM | CC(=O)NCCCC(=O)N[C@H]1CCC[C@H]1c1nc2ccccc2s1 [Compound 136] | > 10 µM | > 10 µM | – | – | –
17 | > 10 µM | CC(=O)NCCCC(=O)N[C@@H]1CCC[C@H]1c1nc2ccccc2s1 [Compound 137] | > 10 µM | > 10 µM | – | – | –

Row | EC50 (DUX4) | SMILES | CC50 at 72 h [1] | CC50 at 72 h [2] | CC50 (MB200 cells) | qPCR MBD3L2 Inhib at 11 µM (MBD3L2 RNA) | CC50 (HEK)
18 | > 10 µM | CC(=O)NCCCCC(=O)NC1CCC(c2nc3ccccc3s2)CC1 (stereo not shown) [Compound 139] | > 10 µM | > 10 µM | – | – | –
19 | > 10 µM | O=C(CCCCN1C(=O)CCC1=O)NC1CCC(c2nc3ccccc3s2)CC1 (stereo not shown) [Compound 143] | > 10 µM | > 10 µM | – | – | –
20 | > 10 µM | CC(=O)NCCCC(=O)N(C)C1CCC(c2nc3ccccc3s2)C1 (stereo not shown) [Compound 146] | > 10 µM | > 10 µM | – | – | –
21 | > 10 µM | CN(C(=O)CCCN1C(=O)CCC1=O)C1CCC(c2nc3ccccc3s2)C1 (stereo not shown) [Compound 147] | > 10 µM | > 10 µM | – | – | –
22 | > 10 µM | O=C(CCCN1C(=O)CCC1=O)Nc1ccc(Cc2nc3ccccc3s2)cc1 [Compound 148] | > 10 µM | > 10 µM | – | – | –
23 | > 10 µM | O=C(NCCCN1C(=O)CCC1=O)c1ccc(Cc2nc3ccccc3s2)cc1 [Compound 150] | > 10 µM | > 10 µM | – | – | –
24 | > 10 µM | O=C(CCCCN1C(=O)CCC1=O)N[C@H]1CC[C@H](c2nc3ccccc3s2)CC1 [Compound 152] | > 10 µM | > 10 µM | – | – | –
25 | > 10 µM | CC(=O)NCCCN(C)C(=O)[C@@H]1CC[C@H](c2nc3ccccc3s2)C1 [Compound 153] | > 10 µM | > 10 µM | – | – | –
26 | > 10 µM | CC(=O)NCCCN(C)C(=O)[C@H]1CC[C@H](c2nc3ccccc3s2)C1 [Compound 154] | > 10 µM | > 10 µM | – | – | –
27 | – | O=C(CCCN1C(=O)CCC1=O)N[C@@H]1CC[C@H](c2nc3ccccc3s2)C1 [Compound 159] | – | – | > 10 µM | – | –
28 | > 10 µM | O=C(CCCN1C(=O)CCC1=O)N[C@H]1CC[C@@H](c2nc3ccccc3s2)C1 [Compound 160] | > 10 µM | > 10 µM | – | – | –
29 | > 10 µM | CC(=O)NCCCNC(=O)[C@@H]1CC[C@H](c2nc3ccccc3s2)C1 [Compound 165] | > 10 µM | > 10 µM | – | – | –
30 | > 10 µM | CC(=O)NCCCNC(=O)[C@H]1CC[C@H](c2nc3ccccc3s2)C1 [Compound 166] | > 10 µM | > 10 µM | – | – | –
31 | > 10 µM | CC(=O)NCCCNC(=O)c1cc(F)cc(-c2nc3cc(F)ccc3s2)c1 [Compound 180] | > 10 µM | > 10 µM | – | – | –
32 | > 10 µM | CC(=O)NCCCC(=O)Nc1cc(F)cc(-c2nc3cc(F)ccc3s2)c1 [Compound 181] | > 10 µM | > 10 µM | – | – | –
33 | > 10 µM | O=C1CCC(CCC(=O)N[C@H]2CC[C@@H](c3nc4ccccc4s3)CC2)N1 (stereo partly shown) [Compound 186] | > 10 µM | > 10 µM | – | – | –
34 | > 10 µM | O=C1CCC(CCC(=O)N[C@H]2CC[C@H](c3nc4ccccc4s3)CC2)N1 (stereo partly shown) [Compound 187] | > 10 µM | > 10 µM | – | – | –
